Data on 1 compound can be found in patent US20090318678A1, “Stable C-Glycoside Sugar and C-Glycoconjugate Mimetics, Method for preparing same and uses Thereof in Particular in Cosmetics and Drugs” (TFCHEM, priority 2006, published 2009).

This data set deals with α-galactosidase and β-galactosidase. Nature of the data set: Test in the presence of glycosidase (resistance to galactosidases, monitored by 19F NMR). The format is in vitro ADME. The following applies: phosphate buffer 0.07 M, pH 7, 37° C.; α-galactosidase (5 units) and β-galactosidase (6.25 units); samples after 24, 48, 72, 96 and 120 hours. As for the experimental part:
Indeed, it is known that the following compounds undergo enzymatic break-down (FIG. 25).
The protocol used is as follows (FIG. 26)
A solution of compound 17a1 (17.72 mg) in water (500 μl) is added to a solution of phosphate buffer (0.07 M; pH 7, 4 ml) containing α-galactosidase (5 units) and β-galactosidase (6.25 units) at 37° C. The reaction is monitored by ^19F NMR. Samples are taken after 24, 48, 72, 96 and 120 hours.

As to `C[C@H](NC(=O)[C@H](C)NC(=O)[C@@H](N)CCCCNC(=O)[C@H](F)[C@]1(O)O[C@H](CO)[C@H](O)[C@H](O)[C@H]1O)C(=O)O` [Compound 17a1], the “resistance to glycosidases / stability (change of the starting product by 19F NMR)” value was “No change is observed and the starting product remains”.
